Data from patent publication US9993490B2, “Phosphonic acid compounds and screening method” (The Board of Trustees of The University of Illinois, priority 2014, dated 2018).

How the values were obtained:
Escherichia coli WM6242 = assay: Growth inhibition in liquid culture; assay type: cell-based; settings: upon induction of phosphonate uptake machinery (1 mM IPTG); 100 ug ml^-1
Description: (§1) Antibiotic activity for purified PnPs was examined by growth inhibition in liquid cultures. Salmonella typhimurium LT2, Escherichia coli WM6242 (±1 mM IPTG), and Pseudomonas aeruginosa K were grown in M9-glucose. Bacillus subtilis subsp. spizizenii ATCC 6633, Staphylococcus aureus ATCC 25923, and Mycobacterium smegmatis NRRL B-14616 (37° C.) were cultivated in R2A. 96-Well plates containing 150 μL of media was inoculated with 1.5 uL of the appropriate cultures (OD600=0.4-0.5). Kanamycin, aminomethylphosphonate, 1-hydroxy-2-aminoethylphosphonate, (R)-2,3-dihydroxypropylphosphonate, argolaphos A, and argolaphos B were added to a final concentration of 100 ug ml^−1. After growth for 16 hours (24 for M. smegmatis) in a shaking incubator (200 rpm), cell densities recorded on a Tecan microplate reader.

[1] = test system: Mycobacterium smegmatis NRRL B-14616; assay: Growth inhibition in liquid culture; assay type: cell-based; settings: 100 ug ml^-1, R2A, 37° C., 24 hours
Description: as §1

[2] = Stability in the course of purification; assay type: physicochemical; settings: fraction 2 of S. durhamensis NRRL B-3309 extract
Description: The liquid was concentrated to dryness and dissolved in 200 mL of 0.1% aqueous acetic acid, which was then applied to a 100 mL Fe(III) IMAC gravity column. Before sample loading the column was equilibrated with 0.1% acetic acid. After sample loading, the column was washed successively with 5 volumes of 0.1% acetic acid and 0.1% acetic acid in 20% acetonitrile (ACN). The materials were eluted from the column with 100 mM aqueous NH4HCO3. The eluate (200 mL) from the iron IMAC column was dried with a rotary evaporator as fraction 1. The unabsorbed sample was also dried as fraction 2.

Molecule: NCC(O)OP(=O)(O)O (stereo not drawn) [Compound 11, 1-hydroxy-2-aminoethylphosphoric acid]
- antibiotic activity against E. coli (Escherichia coli WM6242): effective antibiotic

Molecule: O=P(O)(O)C[C@H](O)CO [Compound 4, (R)-2,3-dihydroxypropylphosphonic acid]
- growth inhibition of Mycobacterium smegmatis [1]: slightly inhibited growth

Molecule: cyclic 2,3-dihydroxypropanoic acid [Compound 6]
- stability during purification [2]: unstable and easily decomposed
